The record followed here is patent US10344060B2 (priority 2013, dated 2019).

The target in one assay is hNav1.5 (Homo sapiens, UniProt Q14524). The assay is described as follows: cell-based. Conditions: Table 12; ratio of PX tonic IC50 values.
The target of another assay is hNav1.4 (Homo sapiens, UniProt P35499). Nature of the assay: cell-based. It is filed as cell-based. Conditions: Table 12; ratio of PX tonic IC50 values.
Chain of hNav1.4 (P35499 whole entry): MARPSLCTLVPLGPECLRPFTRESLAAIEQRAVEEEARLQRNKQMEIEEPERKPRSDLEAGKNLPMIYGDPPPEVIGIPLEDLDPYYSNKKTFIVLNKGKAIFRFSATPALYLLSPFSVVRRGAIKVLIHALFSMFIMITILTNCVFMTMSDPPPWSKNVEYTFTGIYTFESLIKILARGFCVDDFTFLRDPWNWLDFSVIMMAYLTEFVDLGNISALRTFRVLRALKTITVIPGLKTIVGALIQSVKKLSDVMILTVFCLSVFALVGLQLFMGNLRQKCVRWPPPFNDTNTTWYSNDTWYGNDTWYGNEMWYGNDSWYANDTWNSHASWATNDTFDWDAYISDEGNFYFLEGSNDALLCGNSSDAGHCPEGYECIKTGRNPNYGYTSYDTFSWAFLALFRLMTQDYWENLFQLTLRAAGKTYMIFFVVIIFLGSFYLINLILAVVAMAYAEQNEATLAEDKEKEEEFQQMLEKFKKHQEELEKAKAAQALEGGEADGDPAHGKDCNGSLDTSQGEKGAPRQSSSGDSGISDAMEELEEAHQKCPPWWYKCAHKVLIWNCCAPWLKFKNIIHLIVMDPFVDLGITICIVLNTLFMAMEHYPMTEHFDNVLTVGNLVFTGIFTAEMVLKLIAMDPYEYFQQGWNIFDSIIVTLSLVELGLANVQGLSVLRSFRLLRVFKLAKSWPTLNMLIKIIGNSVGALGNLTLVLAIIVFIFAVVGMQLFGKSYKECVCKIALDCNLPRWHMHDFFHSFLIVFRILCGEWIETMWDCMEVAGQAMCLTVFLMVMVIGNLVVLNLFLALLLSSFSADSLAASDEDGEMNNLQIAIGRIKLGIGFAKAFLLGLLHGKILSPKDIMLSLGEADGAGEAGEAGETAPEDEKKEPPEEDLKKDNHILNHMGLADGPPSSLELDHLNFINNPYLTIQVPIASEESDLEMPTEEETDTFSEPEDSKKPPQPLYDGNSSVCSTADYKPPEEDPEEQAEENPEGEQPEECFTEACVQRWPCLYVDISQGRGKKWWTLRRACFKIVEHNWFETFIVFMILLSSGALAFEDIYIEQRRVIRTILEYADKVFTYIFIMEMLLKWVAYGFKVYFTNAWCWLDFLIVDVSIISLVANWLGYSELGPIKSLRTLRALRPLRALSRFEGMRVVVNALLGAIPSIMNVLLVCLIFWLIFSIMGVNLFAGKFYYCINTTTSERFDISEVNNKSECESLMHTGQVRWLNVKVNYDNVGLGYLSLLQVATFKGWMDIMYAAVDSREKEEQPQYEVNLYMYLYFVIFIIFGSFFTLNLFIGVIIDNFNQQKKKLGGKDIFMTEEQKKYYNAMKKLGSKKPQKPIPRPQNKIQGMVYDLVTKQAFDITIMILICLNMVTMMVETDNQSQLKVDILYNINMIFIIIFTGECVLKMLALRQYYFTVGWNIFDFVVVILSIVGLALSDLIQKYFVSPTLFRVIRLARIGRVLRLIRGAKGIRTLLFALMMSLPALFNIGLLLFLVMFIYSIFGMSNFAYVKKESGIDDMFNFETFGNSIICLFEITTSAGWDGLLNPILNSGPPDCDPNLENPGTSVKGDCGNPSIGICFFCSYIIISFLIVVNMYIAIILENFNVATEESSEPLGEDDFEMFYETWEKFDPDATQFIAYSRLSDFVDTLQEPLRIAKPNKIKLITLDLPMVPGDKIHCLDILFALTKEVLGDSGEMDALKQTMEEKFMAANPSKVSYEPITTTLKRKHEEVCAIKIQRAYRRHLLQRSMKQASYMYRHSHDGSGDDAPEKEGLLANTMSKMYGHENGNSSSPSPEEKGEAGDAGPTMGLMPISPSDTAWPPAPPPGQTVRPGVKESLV

Chain of hNav1.5 (Q14524 whole entry): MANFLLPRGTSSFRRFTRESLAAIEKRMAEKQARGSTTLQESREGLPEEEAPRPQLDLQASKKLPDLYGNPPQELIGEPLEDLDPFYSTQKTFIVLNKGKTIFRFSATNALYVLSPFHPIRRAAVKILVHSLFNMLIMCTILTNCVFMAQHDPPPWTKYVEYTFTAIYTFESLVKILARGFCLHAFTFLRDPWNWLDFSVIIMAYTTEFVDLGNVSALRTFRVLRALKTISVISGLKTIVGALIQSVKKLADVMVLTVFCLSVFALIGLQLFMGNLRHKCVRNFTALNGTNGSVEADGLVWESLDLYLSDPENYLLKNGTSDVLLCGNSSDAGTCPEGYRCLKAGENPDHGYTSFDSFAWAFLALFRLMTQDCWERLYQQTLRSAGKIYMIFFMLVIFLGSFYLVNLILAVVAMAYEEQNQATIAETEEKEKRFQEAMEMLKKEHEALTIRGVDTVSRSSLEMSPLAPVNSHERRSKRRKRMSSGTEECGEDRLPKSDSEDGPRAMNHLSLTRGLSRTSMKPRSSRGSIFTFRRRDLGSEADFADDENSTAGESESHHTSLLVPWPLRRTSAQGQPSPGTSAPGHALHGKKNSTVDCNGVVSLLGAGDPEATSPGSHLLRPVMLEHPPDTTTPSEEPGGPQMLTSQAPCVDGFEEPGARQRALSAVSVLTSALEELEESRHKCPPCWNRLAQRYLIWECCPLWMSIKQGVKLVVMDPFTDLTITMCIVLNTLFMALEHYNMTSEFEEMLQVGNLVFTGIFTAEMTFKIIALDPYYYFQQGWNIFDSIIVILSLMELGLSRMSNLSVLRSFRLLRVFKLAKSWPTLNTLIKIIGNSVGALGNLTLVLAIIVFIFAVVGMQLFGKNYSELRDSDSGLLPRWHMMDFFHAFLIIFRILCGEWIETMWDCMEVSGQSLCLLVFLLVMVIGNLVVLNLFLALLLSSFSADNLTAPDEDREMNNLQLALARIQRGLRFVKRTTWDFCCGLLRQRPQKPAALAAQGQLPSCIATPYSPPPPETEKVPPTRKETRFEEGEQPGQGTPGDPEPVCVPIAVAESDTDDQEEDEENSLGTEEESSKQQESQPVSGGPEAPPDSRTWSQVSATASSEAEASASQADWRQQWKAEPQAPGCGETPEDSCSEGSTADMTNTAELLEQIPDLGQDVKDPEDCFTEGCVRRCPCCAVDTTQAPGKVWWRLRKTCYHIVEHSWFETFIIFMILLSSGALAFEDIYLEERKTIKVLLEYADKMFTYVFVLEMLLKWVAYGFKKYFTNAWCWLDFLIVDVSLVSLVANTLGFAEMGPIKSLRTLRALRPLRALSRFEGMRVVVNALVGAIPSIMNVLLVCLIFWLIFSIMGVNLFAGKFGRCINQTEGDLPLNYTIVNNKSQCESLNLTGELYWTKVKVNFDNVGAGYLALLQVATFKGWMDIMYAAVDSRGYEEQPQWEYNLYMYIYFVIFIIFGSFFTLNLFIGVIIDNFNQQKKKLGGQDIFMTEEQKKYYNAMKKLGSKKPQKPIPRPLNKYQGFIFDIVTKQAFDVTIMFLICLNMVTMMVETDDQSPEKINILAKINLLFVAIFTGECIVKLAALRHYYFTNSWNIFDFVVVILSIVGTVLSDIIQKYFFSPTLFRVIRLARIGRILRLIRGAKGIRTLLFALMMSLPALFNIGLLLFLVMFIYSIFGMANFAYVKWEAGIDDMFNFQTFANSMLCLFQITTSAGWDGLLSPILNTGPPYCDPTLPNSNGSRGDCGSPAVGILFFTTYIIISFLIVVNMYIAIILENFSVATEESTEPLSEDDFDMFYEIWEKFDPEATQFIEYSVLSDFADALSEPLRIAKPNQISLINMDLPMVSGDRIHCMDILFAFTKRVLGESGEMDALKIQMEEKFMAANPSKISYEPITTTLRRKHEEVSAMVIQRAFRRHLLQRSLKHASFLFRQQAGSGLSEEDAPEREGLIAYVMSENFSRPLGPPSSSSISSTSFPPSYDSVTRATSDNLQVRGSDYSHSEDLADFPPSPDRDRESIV

`C#CC[C@H](N)C(=O)NCCOCCOCCOCCOCCOCCOCCOCCOCCOCCOCCOCCOCCC(=O)NCCCC[C@@H]1NC(=O)[C@@H]2CSSC[C@H](NC(=O)[C@@H](N)Cc3ccc(O)cc3)C(=O)N[C@@H](CCC(N)=O)C(=O)N[C@@H](CCCCN)C(=O)N[C@@H](Cc3c[nH]c4ccccc34)C(=O)N[C@@H](CCCC)C(=O)N[C@@H](Cc3c[nH]c4ccccc34)C(=O)N[C@@H]([C@@H](C)O)C(=O)N[C@H]3CSSC[C@H](NC(=O)[C@H](CCC(=O)O)NC(=O)[C@H](CC(C)C)NC(=O)CNC1=O)C(=O)N[C@@H](CCCCN)C(=O)N[C@@H](CC(C)C)C(=O)N[C@@H](Cc1c[nH]c4ccccc14)C(=O)N[C@H](C(=O)N[C@@H](CCCNC(=N)N)C(=O)N[C@@H](CCCCN)C(=O)N[C@H](C(=O)N[C@@H](Cc1c[nH]c4ccccc14)C(N)=O)[C@@H](C)CC)CSSC[C@H](NC(=O)[C@H](C)NC(=O)[C@H](CCCNC(=N)N)NC(=O)[C@H](CCCCN)NC(=O)[C@H](CO)NC(=O)[C@H](CC(=O)O)NC3=O)C(=O)N2` [compound 292]: the Nav1.5/Nav1.7 at hNav1.5 amounted to 3. For the same molecule, the Nav1.4/Nav1.7 on hNav1.4 is 2.

Consider `C#CC[C@H](N)C(=O)NCCOCCOCCOCCOCCC(=O)NCCCC[C@@H]1NC(=O)[C@@H]2CSSC[C@H](NC(=O)[C@@H](N)Cc3ccc(O)cc3)C(=O)N[C@@H](CCC(N)=O)C(=O)N[C@@H](CCCCN)C(=O)N[C@@H](Cc3c[nH]c4ccccc34)C(=O)N[C@@H](CCCC)C(=O)N[C@@H](Cc3c[nH]c4ccccc34)C(=O)N[C@@H]([C@@H](C)O)C(=O)N[C@H]3CSSC[C@H](NC(=O)[C@H](CCC(=O)O)NC(=O)[C@H](CC(C)C)NC(=O)CNC1=O)C(=O)N[C@@H](CCCCN)C(=O)N[C@@H](CC(C)C)C(=O)N[C@@H](Cc1c[nH]c4ccccc14)C(=O)N[C@H](C(=O)N[C@@H](CCCNC(=N)N)C(=O)N[C@@H](CCCCN)C(=O)N[C@H](C(=O)N[C@@H](Cc1c[nH]c4ccccc14)C(N)=O)[C@@H](C)CC)CSSC[C@H](NC(=O)[C@H](C)NC(=O)[C@H](CCCNC(=N)N)NC(=O)[C@H](CCCCN)NC(=O)[C@H](CO)NC(=O)[C@H](CC(=O)O)NC3=O)C(=O)N2` [compound 293], for which, at hNav1.5, the Nav1.5/Nav1.7 was found to be 1. Moreover, the Nav1.4/Nav1.7 on hNav1.4 is 1.

Take `C#CC[C@H](N)C(=O)N[C@@H](Cc1ccc(O)cc1)C(=O)N[C@H]1CSSC[C@@H]2NC(=O)[C@@H]3CSSC[C@@H](C(=O)N[C@@H](CCCNC(=N)N)C(=O)N[C@@H](CCCCN)C(=O)N[C@H](C(=O)N[C@H](C(N)=O)[C@@H](C)CC)[C@@H](C)CC)NC(=O)[C@H](Cc4c[nH]c5ccccc45)NC(=O)[C@H](CC(C)C)NC(=O)[C@H](CCCCN)NC(=O)[C@H](CSSC[C@H](NC(=O)[C@H]([C@@H](C)O)NC(=O)[C@H](Cc4c[nH]c5ccccc45)NC(=O)[C@H](CCCC)NC(=O)[C@H](Cc4c[nH]c5ccccc45)NC(=O)[C@H](CCCCN)NC(=O)[C@H](CCC(N)=O)NC1=O)C(=O)N[C@@H](CC(=O)O)C(=O)N[C@@H](CO)C(=O)N[C@@H](CCCCN)C(=O)N[C@@H](CCCNC(=N)N)C(=O)N[C@@H](C)C(=O)N3)NC(=O)[C@H](CCC(=O)O)NC(=O)[C@H](CC(C)C)NC(=O)CNC(=O)[C@H](CCC(=O)O)NC2=O` [compound 297]: the Nav1.5/Nav1.7 at hNav1.5 was found to be 642. The Nav1.4/Nav1.7 at hNav1.4 came to 431.

`C#CC[C@H](N)C(=O)N[C@@H](Cc1ccc(O)cc1)C(=O)N[C@H]1CSSC[C@@H]2NC(=O)[C@@H]3CSSC[C@@H](C(=O)N[C@@H](CCCNC(=N)N)C(=O)N[C@@H](CCCCN)C(=O)N[C@H](C(=O)N[C@@H](Cc4c[nH]c5ccccc45)C(N)=O)[C@@H](C)CC)NC(=O)[C@H](Cc4c[nH]c5ccccc45)NC(=O)[C@H](CC(C)C)NC(=O)[C@H](CCCCN)NC(=O)[C@H](CSSC[C@H](NC(=O)[C@H]([C@@H](C)O)NC(=O)[C@H](Cc4c[nH]c5ccccc45)NC(=O)[C@H](Cc4ccccc4)NC(=O)[C@H](Cc4c[nH]c5ccccc45)NC(=O)[C@H](CCCCN)NC(=O)[C@H](CCC(N)=O)NC1=O)C(=O)N[C@@H](CC(=O)O)C(=O)N[C@@H](CO)C(=O)N[C@@H](CCCCN)C(=O)N[C@@H](CCCNC(=N)N)C(=O)N[C@@H](C)C(=O)N3)NC(=O)[C@H](CCC(=O)O)NC(=O)[C@H](CC(C)C)NC(=O)CNC(=O)[C@H](CCC(=O)O)NC2=O` [compound 298]: the Nav1.5/Nav1.7 on hNav1.5 is reported as 52. In addition, the Nav1.4/Nav1.7 at hNav1.4 was found to be 44.

With `C#CC[C@H](N)C(=O)N[C@@H](Cc1ccc(O)cc1)C(=O)N[C@H]1CSSC[C@@H]2NC(=O)[C@@H]3CSSC[C@@H](C(=O)N[C@@H](CCCNC(=N)N)C(=O)N[C@@H](CCCCN)C(=O)N[C@H](C(=O)N[C@@H](Cc4c[nH]c5ccccc45)C(N)=O)[C@@H](C)CC)NC(=O)[C@H](Cc4c[nH]c5ccccc45)NC(=O)[C@H](CC(C)C)NC(=O)[C@H](CCCCN)NC(=O)[C@H](CSSC[C@H](NC(=O)[C@H]([C@@H](C)O)NC(=O)[C@H](Cc4c[nH]c5ccccc45)NC(=O)[C@H](CC(C)C)NC(=O)[C@H](Cc4c[nH]c5ccccc45)NC(=O)[C@H](CCCCN)NC(=O)[C@H](CCC(N)=O)NC1=O)C(=O)N[C@@H](CC(=O)O)C(=O)N[C@@H](CO)C(=O)N[C@@H](CCCCN)C(=O)N[C@@H](CCCNC(=N)N)C(=O)N[C@@H](C)C(=O)N3)NC(=O)[C@H](CCC(=O)O)NC(=O)[C@H](CC(C)C)NC(=O)CNC(=O)[C@H](CCC(=O)O)NC2=O` [compound 299], the Nav1.5/Nav1.7 at hNav1.5 amounted to 2332. Further, the Nav1.4/Nav1.7 on hNav1.4 came to 2069.

For `C#CC[C@H](N)C(=O)N[C@@H](Cc1ccc(O)cc1)C(=O)N[C@H]1CSSC[C@@H]2NC(=O)[C@@H]3CSSC[C@@H](C(=O)N[C@@H](CCCNC(=N)N)C(=O)N[C@@H](CCCCN)C(=O)N[C@H](C(=O)N[C@@H](Cc4c[nH]c5ccccc45)C(N)=O)[C@@H](C)CC)NC(=O)[C@H](Cc4c[nH]c5ccccc45)NC(=O)[C@H](CC(C)C)NC(=O)[C@H](CCCCN)NC(=O)[C@H](CSSC[C@H](NC(=O)[C@H]([C@@H](C)O)NC(=O)[C@H](Cc4c[nH]c5ccccc45)NC(=O)[C@H](CCC)NC(=O)[C@H](Cc4c[nH]c5ccccc45)NC(=O)[C@H](CCCCN)NC(=O)[C@H](CCC(N)=O)NC1=O)C(=O)N[C@@H](CC(=O)O)C(=O)N[C@@H](CO)C(=O)N[C@@H](CCCCN)C(=O)N[C@@H](CCCNC(=N)N)C(=O)N[C@@H](C)C(=O)N3)NC(=O)[C@H](CCC(=O)O)NC(=O)[C@H](CC(C)C)NC(=O)CNC(=O)[C@H](CCC(=O)O)NC2=O` [compound 300], the Nav1.5/Nav1.7 on hNav1.5 was 6483. Also, at hNav1.4, the Nav1.4/Nav1.7 is given as 1183.

Regarding `CCCC[C@@H]1NC(=O)[C@H](Cc2c[nH]c3ccccc23)NC(=O)[C@H](CCCCN)NC(=O)[C@H](CCC(N)=O)NC(=O)[C@@H](NC(=O)[C@@H](N)CCCCN=[N+]=[N-])CSSC[C@@H]2NC(=O)[C@@H]3CSSC[C@@H](C(=O)N[C@@H](CCCNC(=N)N)C(=O)N[C@@H](CCCCN)C(=O)N[C@H](C(=O)N[C@@H](Cc4c[nH]c5ccccc45)C(N)=O)[C@@H](C)CC)NC(=O)[C@H](Cc4c[nH]c5ccccc45)NC(=O)[C@H](CC(C)C)NC(=O)[C@H](CCCCN)NC(=O)[C@H](CSSC[C@H](NC(=O)[C@H]([C@@H](C)O)NC(=O)[C@H](Cc4c[nH]c5ccccc45)NC1=O)C(=O)N[C@@H](CC(=O)O)C(=O)N[C@@H](CO)C(=O)N[C@@H](CCCCN)C(=O)N[C@@H](CCCNC(=N)N)C(=O)N[C@@H](C)C(=O)N3)NC(=O)[C@H](CCC(=O)O)NC(=O)[C@H](CC(C)C)NC(=O)CNC(=O)[C@H](CCC(=O)O)NC2=O` [compound 304], at hNav1.5, the Nav1.5/Nav1.7 came out at 662. Further, the Nav1.4/Nav1.7 at hNav1.4 is 449.

As to `CCCC[C@@H]1NC(=O)[C@H](Cc2c[nH]c3ccccc23)NC(=O)[C@H](CCCCN)NC(=O)[C@H](CCC(N)=O)NC(=O)[C@@H](NC(=O)[C@@H](N)Cc2ccc(O)cc2)CSSC[C@@H]2NC(=O)[C@@H]3CSSC[C@@H](C(=O)N[C@@H](CCCNC(=N)N)C(=O)N[C@@H](CCCCN)C(=O)N[C@H](C(=O)N[C@@H](Cc4c[nH]c5ccccc45)C(N)=O)[C@@H](C)CC)NC(=O)[C@H](Cc4c[nH]c5ccccc45)NC(=O)[C@H](CC(C)C)NC(=O)[C@H](CCCCN)NC(=O)[C@H](CSSC[C@H](NC(=O)[C@H]([C@@H](C)O)NC(=O)[C@H](Cc4c[nH]c5ccccc45)NC1=O)C(=O)N[C@@H](CC(=O)O)C(=O)N[C@@H](CCCCN=[N+]=[N-])C(=O)N[C@@H](CCCCN)C(=O)N[C@@H](CCCNC(=N)N)C(=O)N[C@@H](C)C(=O)N3)NC(=O)[C@H](CCC(=O)O)NC(=O)[C@H](CC(C)C)NC(=O)CNC(=O)[C@H](CCC(=O)O)NC2=O` [compound 305], the Nav1.5/Nav1.7 on hNav1.5 stood at 0. Further, the Nav1.4/Nav1.7 on hNav1.4 is 0.

Regarding `CCCC[C@@H]1NC(=O)[C@H](Cc2c[nH]c3ccccc23)NC(=O)[C@H](CCCCN)NC(=O)[C@H](CCC(N)=O)NC(=O)[C@@H](NC(=O)[C@@H](N)Cc2ccc(O)cc2)CSSC[C@@H]2NC(=O)[C@@H]3CSSC[C@@H](C(=O)N[C@@H](CCCNC(=N)N)C(=O)N[C@@H](CCCCN)C(=O)N[C@H](C(=O)N[C@@H](Cc4c[nH]c5ccccc45)C(N)=O)[C@@H](C)CC)NC(=O)[C@H](Cc4c[nH]c5ccccc45)NC(=O)[C@H](CC(C)C)NC(=O)[C@H](CCCCN)NC(=O)[C@H](CSSC[C@H](NC(=O)[C@H]([C@@H](C)O)NC(=O)[C@H](Cc4c[nH]c5ccccc45)NC1=O)C(=O)N[C@@H](CC(=O)O)C(=O)N[C@@H](CO)C(=O)N[C@@H](CCCCN)C(=O)N[C@@H](CCCNC(=N)N)C(=O)N[C@@H](CCCCN=[N+]=[N-])C(=O)N3)NC(=O)[C@H](CCC(=O)O)NC(=O)[C@H](CC(C)C)NC(=O)CNC(=O)[C@H](CCC(=O)O)NC2=O` [compound 306], the Nav1.5/Nav1.7 at hNav1.5 worked out at 1712. Further, on hNav1.4, the Nav1.4/Nav1.7 is 550.

For `CCCC[C@@H]1NC(=O)[C@H](Cc2c[nH]c3ccccc23)NC(=O)[C@H](CCCCN)NC(=O)[C@H](CCC(N)=O)NC(=O)[C@@H](NC(=O)[C@@H](N)Cc2ccc(O)cc2)CSSC[C@@H]2NC(=O)[C@@H]3CSSC[C@@H](C(=O)N[C@@H](CCCNC(=N)N)C(=O)N[C@@H](CCCCN)C(=O)N[C@H](C(=O)N[C@@H](Cc4c[nH]c5ccccc45)C(N)=O)[C@@H](C)CC)NC(=O)[C@H](Cc4c[nH]c5ccccc45)NC(=O)[C@H](CC(C)C)NC(=O)[C@H](CCCCN)NC(=O)[C@H](CSSC[C@H](NC(=O)[C@H]([C@@H](C)O)NC(=O)[C@H](Cc4c[nH]c5ccccc45)NC1=O)C(=O)N[C@@H](CC(=O)O)C(=O)N[C@@H](CO)C(=O)N[C@@H](CCCCN)C(=O)N[C@@H](CCCNC(=N)N)C(=O)N[C@@H](C)C(=O)N3)NC(=O)[C@H](CCC(=O)O)NC(=O)[C@H](CC(C)C)NC(=O)CNC(=O)[C@H](CCCCN=[N+]=[N-])NC2=O` [compound 307], at hNav1.5, the Nav1.5/Nav1.7 is 83. Besides, the Nav1.4/Nav1.7 at hNav1.4 is recorded as 40.
